Measurements taken from patent US7074789B2, “Kinase inhibitors” (Amgen Inc., priority 1999, dated 2006).

Assays:
Assay type in all cases: biochemical
EPHB4 = biological target: T1, EPHB4 (Homo sapiens, UniProt P54760); assay: Kinase inhibition assay (33P transfer), EPHB4; details: read-out: EPHB4-1
T1 construct: Kinases are expressed as either kinase domains or full length constructs; made in house
T1 sequence (P54760 16-987): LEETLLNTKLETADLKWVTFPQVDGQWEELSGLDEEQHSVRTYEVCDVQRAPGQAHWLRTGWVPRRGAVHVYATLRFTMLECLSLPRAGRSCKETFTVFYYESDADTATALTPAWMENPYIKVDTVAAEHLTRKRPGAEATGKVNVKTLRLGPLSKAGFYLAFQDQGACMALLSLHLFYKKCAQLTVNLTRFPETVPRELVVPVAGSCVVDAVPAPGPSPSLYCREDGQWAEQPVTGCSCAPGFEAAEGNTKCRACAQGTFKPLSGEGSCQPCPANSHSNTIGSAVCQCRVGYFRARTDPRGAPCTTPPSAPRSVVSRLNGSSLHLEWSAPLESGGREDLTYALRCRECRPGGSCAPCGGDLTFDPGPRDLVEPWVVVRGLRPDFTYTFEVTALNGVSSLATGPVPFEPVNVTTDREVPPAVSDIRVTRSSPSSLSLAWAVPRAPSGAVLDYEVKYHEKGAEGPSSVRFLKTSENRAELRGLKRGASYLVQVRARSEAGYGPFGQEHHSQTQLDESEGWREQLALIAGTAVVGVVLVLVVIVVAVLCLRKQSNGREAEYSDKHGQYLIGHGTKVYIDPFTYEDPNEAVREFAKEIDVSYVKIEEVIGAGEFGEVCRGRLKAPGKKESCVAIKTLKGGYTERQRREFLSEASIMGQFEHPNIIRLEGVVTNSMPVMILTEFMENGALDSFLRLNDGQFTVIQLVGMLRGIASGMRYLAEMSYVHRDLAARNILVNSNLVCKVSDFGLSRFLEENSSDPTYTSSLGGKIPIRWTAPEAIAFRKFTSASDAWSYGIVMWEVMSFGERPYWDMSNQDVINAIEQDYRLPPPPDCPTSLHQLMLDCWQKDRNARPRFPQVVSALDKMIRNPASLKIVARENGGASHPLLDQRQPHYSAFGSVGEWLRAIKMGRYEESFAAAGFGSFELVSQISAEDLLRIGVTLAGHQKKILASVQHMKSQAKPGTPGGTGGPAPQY

Lyn = biological target: T2, Lyn (Homo sapiens, UniProt P07948); assay: Kinase inhibition assay (33P transfer), Lyn; details: Table 6, Lyn-1 kinase inhibition class
T2 construct: Kinases are expressed as either kinase domains or full length constructs; made in house
How it was run: (§1)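 IC50: inhibitor concentration lowering 33P incorporation into immobilised substrate by 50%. Label transferred from ATP to poly(Glu,Tyr) 4:1 or poly(Arg,Ser) 3:1 is measured after a 0.5% phosphoric acid wash by liquid scintillation.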

Fyn = biological target: T3, Fyn (Homo sapiens, UniProt P06241); assay: Kinase inhibition assay (33P transfer), Fyn; details: read-out: Fyn-1
T3 construct: Kinases are expressed as either kinase domains or full length constructs; made in house
How it was run: as §1

FGFR1 = biological target: T4, FGFR1 (Homo sapiens, UniProt P11362); assay: Kinase inhibition assay (33P transfer), FGFR1; details: read-out: FGFR1-1
T4 construct: Kinases are expressed as either kinase domains or full length constructs; made in house

Flt-1 = biological target: T5, Flt-1 (Homo sapiens, UniProt P17948); assay: Kinase inhibition assay (33P transfer), Flt-1
T5 construct: Kinases are expressed as either kinase domains or full length constructs; made in house
How it was run: as §1

ErbB4 = biological target: T6, ErbB4 (Homo sapiens, UniProt Q15303); assay: Kinase inhibition assay (33P transfer), ErbB4; details: read-out: ErbB4-1
T6 construct: Kinases are expressed as either kinase domains or full length constructs; made in house

Ret-1 = biological target: T7, Ret-1 (Homo sapiens, UniProt P07949); assay: Kinase inhibition assay (33P transfer), Ret; details: Table 6, Ret-1 kinase inhibition class
T7 construct: Kinases are expressed as either kinase domains or full length constructs; made in house

Hck-1 = biological target: T8, Hck-1 (Homo sapiens, UniProt P08631); assay: Kinase inhibition assay (33P transfer), Hck; details: Table 6, Hck-1 kinase inhibition class
T8 construct: Kinases are expressed as either kinase domains or full length constructs; made in house

Src = biological target: T9, Src (Homo sapiens, UniProt P12931); assay: Kinase inhibition assay (33P transfer), Src; details: Table 6, Src-1 kinase inhibition class
T9 construct: Kinases are expressed as either kinase domains or full length constructs; made in house
How it was run: as §1

EGFR = biological target: T10, EGFR (Homo sapiens, UniProt P00533); assay: Kinase inhibition assay (33P transfer), EGFR; details: Table 2, kinase inhibition class; read-out: EGFR-1
T10 construct: Kinases are expressed as either kinase domains or full length constructs; made in house
How it was run: as §1

ErbB2 = biological target: T11, ErbB2 (Homo sapiens, UniProt P04626); assay: Kinase inhibition assay (33P transfer), ErbB2; details: read-out: ErbB2-2
T11 construct: Kinases are expressed as either kinase domains or full length constructs; made in house
How it was run: as §1

IGFR-1 = biological target: T12, IGFR-1 (Homo sapiens, UniProt P08069); assay: Kinase inhibition assay, IGFR-1 (Table 2); details: Table 2, kinase inhibition class
T12 construct: Kinases are expressed as either kinase domains or full length constructs; made in house

AKT = biological target: T13, AKT (Homo sapiens, UniProt Q9Y243); assay: Kinase inhibition assay (33P transfer), AKT; details: Table 2, kinase inhibition class; read-out: AKT3-1
T13 construct: Kinases are expressed as either kinase domains or full length constructs; made in house
How it was run: (§2)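 Activity was read as 33P incorporation, counted by liquid scintillation after a 0.5% phosphoric acid wash, into poly(Glu,Tyr) 4:1 or poly(Arg,Ser) 3:1 substrates coated on plates. Enzymes were tagged (GST or polyHis) kinase domains or full-length proteins from bacterial or insect-cell expression, sometimes with regulatory polypeptides.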

Tek = biological target: T14, Tek (Homo sapiens, UniProt Q02763); assay: Kinase inhibition assay (33P transfer), Tek; details: read-out: Tek-1
T14 construct: Kinases are expressed as either kinase domains or full length constructs; made in house
How it was run: as §1

c-Met = biological target: T15, c-Met (Homo sapiens, UniProt P08581); assay: Kinase inhibition assay (33P transfer), c-Met; details: Table 2, kinase inhibition class; read-out: Met-1
T15 construct: Kinases are expressed as either kinase domains or full length constructs; made in house
How it was run: as §1

PDGFRB = biological target: T16, PDGFRB (Homo sapiens, UniProt P09619); assay: Kinase inhibition assay (33P transfer), PDGFRB; details: read-out: PDGFRB-1
T16 construct: Kinases are expressed as either kinase domains or full length constructs; made in house

Kdr = biological target: T17, Kdr (Homo sapiens, UniProt P35968); assay: Kinase inhibition assay (33P transfer), Kdr; details: read-out: KDR-1
T17 construct: Kinases are expressed as either kinase domains or full length constructs; made in house
How it was run: as §2

Lck = biological target: T18, Lck (Homo sapiens, UniProt P06239); assay: Kinase inhibition assay (33P transfer), Lck; details: read-out: Lck-1
T18 construct: Kinases are expressed as either kinase domains or full length constructs; made in house
How it was run: as §2

Itk = biological target: T19, Itk (Homo sapiens, UniProt Q08881); assay: Kinase inhibition assay (33P transfer), Itk; details: read-out: Itk-1
T19 construct: Kinases are expressed as either kinase domains or full length constructs; made in house
T19 sequence (Q08881 1-620): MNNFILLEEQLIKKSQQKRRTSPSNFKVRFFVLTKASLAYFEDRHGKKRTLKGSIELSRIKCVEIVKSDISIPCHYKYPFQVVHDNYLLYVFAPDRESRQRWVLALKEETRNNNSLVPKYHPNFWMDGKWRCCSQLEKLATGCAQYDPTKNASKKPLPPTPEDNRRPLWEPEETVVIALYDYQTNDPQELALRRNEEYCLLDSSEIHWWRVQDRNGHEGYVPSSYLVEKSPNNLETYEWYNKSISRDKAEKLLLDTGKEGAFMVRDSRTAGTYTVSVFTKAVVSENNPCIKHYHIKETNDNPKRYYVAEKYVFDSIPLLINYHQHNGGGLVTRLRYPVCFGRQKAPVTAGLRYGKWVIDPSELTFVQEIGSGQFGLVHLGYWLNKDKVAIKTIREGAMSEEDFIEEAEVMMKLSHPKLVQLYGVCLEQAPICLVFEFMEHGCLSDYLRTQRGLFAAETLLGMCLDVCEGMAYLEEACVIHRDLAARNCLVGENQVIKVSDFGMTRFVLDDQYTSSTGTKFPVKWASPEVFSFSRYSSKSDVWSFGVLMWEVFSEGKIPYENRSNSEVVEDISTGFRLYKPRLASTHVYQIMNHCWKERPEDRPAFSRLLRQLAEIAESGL
How it was run: as §1

Zap-70 = biological target: T20, Zap-70 (Homo sapiens, UniProt P43403); assay: Kinase inhibition assay (33P transfer), Zap-70; details: read-out: Zap-1
T20 construct: Kinases are expressed as either kinase domains or full length constructs; made in house
T20 sequence (P43403 1-619): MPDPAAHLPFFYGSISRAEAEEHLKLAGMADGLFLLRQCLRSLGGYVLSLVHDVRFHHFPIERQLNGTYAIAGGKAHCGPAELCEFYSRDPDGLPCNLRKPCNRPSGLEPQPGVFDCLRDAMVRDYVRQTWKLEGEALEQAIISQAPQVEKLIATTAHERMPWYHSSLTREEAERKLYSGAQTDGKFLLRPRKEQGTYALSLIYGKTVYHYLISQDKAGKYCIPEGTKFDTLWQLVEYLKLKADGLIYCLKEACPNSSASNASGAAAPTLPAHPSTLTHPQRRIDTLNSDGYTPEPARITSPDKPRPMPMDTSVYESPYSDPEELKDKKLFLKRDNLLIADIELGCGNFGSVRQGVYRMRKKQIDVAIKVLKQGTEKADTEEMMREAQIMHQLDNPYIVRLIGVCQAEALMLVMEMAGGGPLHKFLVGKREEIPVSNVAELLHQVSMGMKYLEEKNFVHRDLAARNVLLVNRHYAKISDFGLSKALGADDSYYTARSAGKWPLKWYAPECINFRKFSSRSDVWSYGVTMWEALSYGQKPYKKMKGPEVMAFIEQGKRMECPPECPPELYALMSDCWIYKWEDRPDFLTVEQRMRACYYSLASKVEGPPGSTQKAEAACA
How it was run: as §2

T4 sequence (P11362 22-822, species assumed): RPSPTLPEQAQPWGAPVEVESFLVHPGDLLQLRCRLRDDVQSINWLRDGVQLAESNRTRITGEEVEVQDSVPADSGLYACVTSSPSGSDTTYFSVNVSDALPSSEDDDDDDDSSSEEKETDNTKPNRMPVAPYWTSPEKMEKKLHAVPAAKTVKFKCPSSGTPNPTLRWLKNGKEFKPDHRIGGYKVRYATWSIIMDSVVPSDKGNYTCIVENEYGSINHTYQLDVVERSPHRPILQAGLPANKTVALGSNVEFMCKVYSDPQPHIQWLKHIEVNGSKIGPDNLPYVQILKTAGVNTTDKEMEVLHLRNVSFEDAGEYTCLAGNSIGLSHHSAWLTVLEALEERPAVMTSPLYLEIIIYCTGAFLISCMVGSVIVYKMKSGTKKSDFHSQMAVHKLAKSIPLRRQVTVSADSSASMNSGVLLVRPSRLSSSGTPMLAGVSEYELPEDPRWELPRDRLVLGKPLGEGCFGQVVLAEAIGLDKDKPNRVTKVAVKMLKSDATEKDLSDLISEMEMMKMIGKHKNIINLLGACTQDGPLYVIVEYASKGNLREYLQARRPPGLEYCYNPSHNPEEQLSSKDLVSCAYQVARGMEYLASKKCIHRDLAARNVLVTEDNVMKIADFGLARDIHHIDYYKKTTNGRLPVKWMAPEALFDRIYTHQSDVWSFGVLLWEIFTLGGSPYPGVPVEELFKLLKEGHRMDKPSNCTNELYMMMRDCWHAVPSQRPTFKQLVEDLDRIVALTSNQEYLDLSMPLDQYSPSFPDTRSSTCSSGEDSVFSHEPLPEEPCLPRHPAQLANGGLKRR
T6 sequence (Q15303 26-1308, species assumed): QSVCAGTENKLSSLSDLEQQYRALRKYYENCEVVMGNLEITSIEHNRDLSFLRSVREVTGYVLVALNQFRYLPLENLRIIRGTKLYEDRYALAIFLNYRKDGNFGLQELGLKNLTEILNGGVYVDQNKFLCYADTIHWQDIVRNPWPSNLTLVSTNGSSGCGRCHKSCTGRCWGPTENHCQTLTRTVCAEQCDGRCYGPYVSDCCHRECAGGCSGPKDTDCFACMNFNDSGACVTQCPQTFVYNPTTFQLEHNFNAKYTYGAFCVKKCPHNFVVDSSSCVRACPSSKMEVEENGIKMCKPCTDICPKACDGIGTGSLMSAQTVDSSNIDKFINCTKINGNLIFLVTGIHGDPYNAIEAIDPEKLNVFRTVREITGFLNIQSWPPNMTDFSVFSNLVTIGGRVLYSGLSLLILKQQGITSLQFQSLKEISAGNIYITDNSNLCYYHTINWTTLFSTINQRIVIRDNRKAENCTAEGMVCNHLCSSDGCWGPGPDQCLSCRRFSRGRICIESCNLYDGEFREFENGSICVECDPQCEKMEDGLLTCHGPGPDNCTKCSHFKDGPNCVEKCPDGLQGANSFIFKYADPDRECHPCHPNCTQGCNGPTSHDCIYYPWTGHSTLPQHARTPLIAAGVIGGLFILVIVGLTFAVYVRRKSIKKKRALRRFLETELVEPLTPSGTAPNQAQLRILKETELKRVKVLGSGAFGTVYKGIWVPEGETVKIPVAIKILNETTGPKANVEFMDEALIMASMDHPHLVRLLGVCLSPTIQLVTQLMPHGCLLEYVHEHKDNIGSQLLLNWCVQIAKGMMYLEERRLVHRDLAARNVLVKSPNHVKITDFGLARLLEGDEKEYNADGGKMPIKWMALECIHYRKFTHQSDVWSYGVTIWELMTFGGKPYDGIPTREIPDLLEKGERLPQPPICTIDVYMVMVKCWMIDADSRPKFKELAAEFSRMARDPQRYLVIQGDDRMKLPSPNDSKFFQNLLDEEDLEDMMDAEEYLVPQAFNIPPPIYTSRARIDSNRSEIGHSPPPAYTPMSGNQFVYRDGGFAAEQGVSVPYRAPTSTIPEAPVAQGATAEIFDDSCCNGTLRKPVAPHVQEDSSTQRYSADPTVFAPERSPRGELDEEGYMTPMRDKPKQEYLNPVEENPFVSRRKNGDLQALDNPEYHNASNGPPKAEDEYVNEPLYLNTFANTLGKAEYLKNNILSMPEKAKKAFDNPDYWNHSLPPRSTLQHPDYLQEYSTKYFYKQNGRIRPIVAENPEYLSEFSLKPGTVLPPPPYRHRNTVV
T7 sequence (P07949 29-1114): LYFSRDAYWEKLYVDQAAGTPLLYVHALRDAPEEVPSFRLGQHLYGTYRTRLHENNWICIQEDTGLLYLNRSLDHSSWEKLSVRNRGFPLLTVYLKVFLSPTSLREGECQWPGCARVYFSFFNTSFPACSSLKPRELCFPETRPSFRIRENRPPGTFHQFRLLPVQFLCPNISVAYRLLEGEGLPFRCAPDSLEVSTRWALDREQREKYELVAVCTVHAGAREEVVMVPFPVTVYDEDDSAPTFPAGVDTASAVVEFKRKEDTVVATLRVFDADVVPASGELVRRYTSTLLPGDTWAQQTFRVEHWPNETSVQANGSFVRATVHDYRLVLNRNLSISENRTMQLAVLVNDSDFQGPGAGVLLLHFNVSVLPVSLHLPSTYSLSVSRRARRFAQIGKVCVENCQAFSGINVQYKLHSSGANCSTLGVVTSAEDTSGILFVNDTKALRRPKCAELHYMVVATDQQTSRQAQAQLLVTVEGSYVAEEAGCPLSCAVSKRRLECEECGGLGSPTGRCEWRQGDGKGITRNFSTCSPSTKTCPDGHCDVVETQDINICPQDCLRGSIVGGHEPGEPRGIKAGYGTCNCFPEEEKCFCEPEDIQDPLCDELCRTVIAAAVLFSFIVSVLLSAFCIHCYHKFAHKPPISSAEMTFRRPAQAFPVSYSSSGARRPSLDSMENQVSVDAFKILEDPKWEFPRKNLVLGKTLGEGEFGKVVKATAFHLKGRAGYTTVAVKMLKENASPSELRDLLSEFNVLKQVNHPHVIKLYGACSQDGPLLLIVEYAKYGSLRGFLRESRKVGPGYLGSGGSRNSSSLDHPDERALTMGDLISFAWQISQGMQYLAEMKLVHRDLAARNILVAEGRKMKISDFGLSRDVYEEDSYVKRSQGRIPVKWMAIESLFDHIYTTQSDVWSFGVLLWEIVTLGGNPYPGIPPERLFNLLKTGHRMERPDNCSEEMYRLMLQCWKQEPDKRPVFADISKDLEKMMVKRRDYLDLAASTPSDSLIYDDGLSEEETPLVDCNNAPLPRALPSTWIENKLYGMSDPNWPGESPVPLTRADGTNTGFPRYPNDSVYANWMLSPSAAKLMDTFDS
T2 sequence (P07948 whole entry, species assumed, the tested form may be a part): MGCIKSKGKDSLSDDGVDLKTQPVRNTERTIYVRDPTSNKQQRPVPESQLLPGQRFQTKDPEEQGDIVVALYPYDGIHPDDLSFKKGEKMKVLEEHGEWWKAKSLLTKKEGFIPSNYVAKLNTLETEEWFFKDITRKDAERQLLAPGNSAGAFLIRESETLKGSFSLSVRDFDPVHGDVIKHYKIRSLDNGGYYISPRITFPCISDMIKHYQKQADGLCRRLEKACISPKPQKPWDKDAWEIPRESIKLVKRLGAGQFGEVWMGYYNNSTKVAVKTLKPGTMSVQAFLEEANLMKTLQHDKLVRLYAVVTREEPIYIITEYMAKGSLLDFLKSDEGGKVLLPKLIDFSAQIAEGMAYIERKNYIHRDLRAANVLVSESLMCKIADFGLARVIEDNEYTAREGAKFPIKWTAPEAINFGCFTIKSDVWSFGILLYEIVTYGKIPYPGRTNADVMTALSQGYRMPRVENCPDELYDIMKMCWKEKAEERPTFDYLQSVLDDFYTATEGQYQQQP
T3 sequence (P06241 whole entry, species assumed, the tested form may be a part): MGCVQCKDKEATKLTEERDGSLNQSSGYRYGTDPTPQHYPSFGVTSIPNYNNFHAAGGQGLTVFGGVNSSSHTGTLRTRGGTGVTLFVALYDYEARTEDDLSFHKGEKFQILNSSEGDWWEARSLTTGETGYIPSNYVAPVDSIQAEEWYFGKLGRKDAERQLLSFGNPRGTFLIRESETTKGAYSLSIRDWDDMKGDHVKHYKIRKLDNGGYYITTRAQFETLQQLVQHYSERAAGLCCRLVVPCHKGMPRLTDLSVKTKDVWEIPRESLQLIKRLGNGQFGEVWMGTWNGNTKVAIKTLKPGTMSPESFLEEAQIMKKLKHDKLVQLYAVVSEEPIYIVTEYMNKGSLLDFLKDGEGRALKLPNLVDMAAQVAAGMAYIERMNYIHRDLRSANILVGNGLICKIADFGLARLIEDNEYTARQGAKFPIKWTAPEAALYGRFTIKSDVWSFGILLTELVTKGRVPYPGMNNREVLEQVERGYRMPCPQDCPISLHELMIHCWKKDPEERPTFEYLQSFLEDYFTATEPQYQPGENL
T9 sequence (P12931 whole entry, species assumed, the tested form may be a part): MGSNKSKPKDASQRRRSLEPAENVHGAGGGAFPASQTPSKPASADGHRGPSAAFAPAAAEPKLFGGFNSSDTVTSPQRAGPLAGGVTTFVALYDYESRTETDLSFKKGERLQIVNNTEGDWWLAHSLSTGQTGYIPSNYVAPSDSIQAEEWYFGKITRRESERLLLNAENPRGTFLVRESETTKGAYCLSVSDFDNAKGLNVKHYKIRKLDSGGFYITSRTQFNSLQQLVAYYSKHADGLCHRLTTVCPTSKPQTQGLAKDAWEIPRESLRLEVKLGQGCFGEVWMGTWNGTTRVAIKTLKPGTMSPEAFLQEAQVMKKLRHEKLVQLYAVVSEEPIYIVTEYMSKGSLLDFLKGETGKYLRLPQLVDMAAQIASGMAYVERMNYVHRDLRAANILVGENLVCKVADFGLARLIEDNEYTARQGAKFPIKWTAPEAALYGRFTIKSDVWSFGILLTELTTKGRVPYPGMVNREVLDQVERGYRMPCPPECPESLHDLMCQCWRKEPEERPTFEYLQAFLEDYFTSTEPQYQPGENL

Row | IC50 (EPHB4) [µM] | IC50 (Lyn) [µM] | IC50 (Fyn) [µM] | IC50 (FGFR1) [µM] | IC50 (Flt-1) [µM] | IC50 (ErbB4) [µM] | IC50 (Ret-1) [µM] | IC50 (Hck-1) [µM] | IC50 (Src) [µM] | IC50 (EGFR) [µM] | IC50 (ErbB2) [µM] | IC50 (IGFR-1) [µM] | IC50 (AKT) [µM] | IC50 (Tek) [µM] | IC50 (c-Met) [µM] | IC50 (PDGFRB) [µM] | IC50 (Kdr) [µM] | IC50 (Lck) [µM] | IC50 (Itk) [µM] | IC50 (Zap-70) [µM] | SMILES
1 | < 0.935 | 0.935 to 5.61 | 5.61 to 8.18 | 0.935 to 5.61 | 0.935 to 5.61 | 8.18 to 10.5 | < 0.935 | > 10.5 | 0.935 to 5.61 |  |  |  |  |  |  |  |  |  |  |  | COc1cc(Nc2ncnc(-n3c(N)nc4cc(Cl)ccc43)n2)cc(OC)c1OC [Compound 296]
2 | 0.912 to 5.47 | > 10.3 | > 10.3 | > 10.3 | > 10.3 | > 10.3 | 0.912 to 5.47 | > 10.3 | > 10.3 |  |  |  |  |  |  |  |  |  |  |  | COc1cc(Nc2ncnc(-n3c(N)nc4cc([N+](=O)[O-])ccc43)n2)cc(OC)c1OC [Compound 294]
3 |  | < 0.804 | < 0.804 | < 0.804 | < 0.804 | 0.804 to 4.82 | < 0.804 | > 9.04 | 0.804 to 4.82 | 4.82 to 7.03 | 7.03 to 9.04 | > 9.04 | > 9.04 | > 9.04 | > 9.04 | < 0.804 | < 0.804 | < 0.804 | > 9.04 | > 9.04 | COc1cc(Nc2ncnc(-n3c(N[C@@H](C)c4ccccc4)nc4ccccc43)n2)cc(OC)c1OC [Compound 1033]
4 |  | 0.892 to 5.35 | > 10 | < 0.892 | 0.892 to 5.35 | > 10 | < 0.892 | > 10 | 0.892 to 5.35 | > 10 | 5.35 to 7.8 | < 0.892 | > 10 | 0.892 to 5.35 | 0.892 to 5.35 | 0.892 to 5.35 | < 0.892 | < 0.892 | 0.892 to 5.35 | > 10 | CCN(CC)CCOc1ccc(Nc2ncnc(-n3c(N)nc4ccccc43)n2)cc1OC [Compound 652]
